Test results published in patent US20240165097A1, “PHARMACEUTICAL COMPOSITION FOR THE TREATMENT OF ALZHEIMER'S DISEASE OR DEMENTIA” (Heptares Therapeutics Limited, priority 2021, published 2024).

System: patients with mild-to-moderate AD
Test: Example D: EEG and evoked response potentials
Type: in vivo, human
Method: Exploratory pharmacodynamic endpoints (Cogstate tests and EEG/evoked response potential [ERP] biomarkers) were evaluated at screening (practice sessions) and baseline visits, and on Day 28±1. While this study was not powered to detect PD effects of small to moderate ESs, the study sample size provided approximately 80% power to detect a large ES of 0.97 for these endpoints using a significance level of 0.10.
Brain activity was measured at rest using EEG, and during presentation of auditory stimuli using ERPs. The following EEG and ERP parameters were examined because of their sensitivities in detecting brain activity abnormalities at rest and during cognitive processing in patients with AD (Dierks T, Ihl R, Frolich L, Maurer K. Psychiatry Res. 1993; 50(3):151-162; Hedges D, Janis R, Mickelson S, Keith C, Bennett D, Brown B L. Clin EEG Neurosci. 2016; 47(1):48-55; Pekkonen E. Audiol Neurootol. 2000; 5(3-4):216-224): • Resting state power in the delta, theta, alpha, beta and gamma frequency bands measured by EEG activity during eyes open and eyes closed conditions (3 minutes each). • ERP markers (approximately 45 minutes) • Mismatch negativity (MMN; sensory gating/change detection)—amplitude and latency • P300-P3a and P3b (attention and working memory updating)—amplitude and latency • 40 Hz auditory steady-state response (ASSR; gamma oscillations and synchrony)—gamma-band evoked power and phase locking
EEG and ERP markers were quantified using the following paradigms: • Resting state paradigm (6 minutes): EEGs were recorded while patients were sitting with their eyes open (3 minutes) and closed (3 minutes) for frequency band-power analyses in the delta, theta, alpha, beta, and gamma frequency bands. Primary dependent measure was mean normalised power at Cz electrode in the eyes open and closed conditions. • Passive auditory oddball paradigm (23 minutes): Patients were instructed to ignore auditory stimuli while viewing a silent movie. Patients listened to a pseudorandom sequence of 85 dB tones (5 msec rise/fall times, 500 msec stimulus onset asynchrony); 85% were standards (50 msec, 1 kHz) and 15% were deviants that differed in both duration and pitch (125 msec, 1.5 kHz). Event-related potentials were generated in response to standard and deviant waveforms. Deviant minus standard difference waves were generated. The primary dependent measures were MMN amplitude and latency at Fz and FCComp electrodes (an average of frontal electrodes). • 40 Hz ASSR paradigm (8 minutes): Gamma steady-state responses were assessed in response to 1 ms 85 dB white noise clicks presented in 500 ms trains at a frequency of 40 Hz, with an inter-train interval of 1 second. A total of 500 click trains were presented. The primary dependent measure was gamma-band—evoked power and gamma phase locking at Fz and FCComp electrodes. • Active auditory oddball paradigm (11 minutes): Patients listened to a pseudorandom sequence of 85 dB tones (5 msec rise/fall times, 1500 msec stimulus onset asynchrony); 80% were standards (50 msec, 1 kHz) and 20% were targets (500 msec, 0.5 kHz). Patients were instructed to press a button when they heard target stimuli. ERPs were generated in response to target tones (P3b). The primary dependent measures were P3b amplitude and latency at CPComp electrodes (an average of central and parietal electrodes).
Patient data were collected from a 64-electrode cap onto a qualified and validated study system operated by site personnel who were specifically trained and certified for the study. The EEGs obtained at each patient visit were reviewed qualitatively by the study EEG expert (who remained blinded to dose allocation) and feedback was provided directly to the relevant site personnel on an ongoing basis and within 2 days of the assessment, to minimise issues from inter-site variability and to ensure the highest possible levels of consistency and reproducibility with respect to the EEG procedures. […]

## CCOC(=O)N1C2CCC1CC(N1CCC3(CC1)CNC(=O)C3)C2 (stereo not drawn) [HTL0018318, ethyl 3-(3-oxo-2,8-diazaspiro[4.5]dec-8-yl)-8-azabicyclo[3.2.1]octane-8-carboxylate]
5 mg, Day 28
  MMN amplitude at Fz electrode, ES: −0.84
  MMN amplitude at Fz electrode, LSM difference from placebo: −0.82 uV
  peak P3b latency at CPComp electrodes, ES: −0.81
  peak P3b latency at CPComp electrodes, LSM difference from placebo: -38 ms
15 mg, Day 28
  MMN amplitude at Fz electrode, ES: −0.64
  MMN amplitude at Fz electrode, LSM difference from placebo: −0.63 uV
  P3a amplitude at Fz electrode, ES: −0.73
  P3a amplitude at Fz electrode, LSM difference from placebo: −0.84 uV
  delta power at Cz electrode, eyes open, ES: 0.75
  delta power at Cz electrode, eyes open, LSM difference from placebo: 3.8
  peak P3b latency at CPComp electrodes: no significant decrease
Across all 3 doses
  P3b mean amplitude at CPComp electrodes, ESs: 0.22-0.44
All HTL0018318 doses
  MMN, mean ES: 0.6
  P3b amplitude, ES: 0.33
  P3b latency, ES: 0.42
  eyes open delta power, mean ES: 0.52
All doses
  peak MMN latency: No statistically significant improvements
Any HTL0018318 dose
  40 Hz ASSR gamma-band evoked power or phase locking at Fz electrode: no significant effects
